Measurements from patent publication US20100267561A1, “HERBICIDAL PYRIDAZINONE DERIVATIVES” (priority 2007, published 2010).

What was measured:
Assay in all cases: Test B pre-/postemergence plant response
Assay type in all cases: in vivo
[1] = tested on: Italian ryegrass (Lolium multiflorum)
How it was run: (§1)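 Visual scoring from 0 (no effect) to 100 (complete control) against untreated controls was done 13 to 15 days after greenhouse treatment. Chemicals were formulated in a surfactant-containing non-phytotoxic solvent and applied to soil preemergence or to 1- to 4-leaf (2-18 cm) plants postemergence.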

[2] = tested on: bermudagrass (Cynodon dactylon); conditions: for Bermudagrass plant response rating: 8 g ai/ha
How it was run: as §1

[3] = tested on: cocklebur (Xanthium strumarium); conditions: for Cocklebur plant response rating: 8 g ai/ha
How it was run: as §1

[4] = tested on: common (oilseed) sunflower (Helianthus annuus); conditions: Preemergence; for Sunflower plant response rating: scale 0 to 100
How it was run: as §1

[5] = tested on: common ragweed (Ambrosia elation); conditions: for Ragweed plant response rating: postemergence, 0-100 scale
How it was run: as §1

[6] = tested on: goosegrass (Eleusine indica)
How it was run: as §1

[7] = tested on: johnsongrass (Sorghum halepense)
How it was run: as §1

kochia (Kochia scoparia) = conditions: for Kochia plant response rating: postemergence, 0-100 scale; for Plant response rating, Kochia: Postemergence
How it was run: as §1

[8] = tested on: lambsquarters (Chenopodium album); conditions: for Lambsquarters plant response rating: postemergence, 0-100 scale; for Plant response rating, Lambsquarters: Postemergence
How it was run: as §1

[9] = tested on: morningglory (Ipomoea coccinea)
How it was run: as §1

soybean (Glycine max) = conditions: for Soybean plant response rating: postemergence, 0-100 scale; for Plant response rating, Soybean: Postemergence
How it was run: as §1

[10] = tested on: surinam grass (Brachiaria decumbens)
How it was run: as §1

[11] = tested on: velvetleaf (Abutilon theophrasti)
How it was run: as §1

[12] = tested on: wheat (Triticum aestivum)
How it was run: as §1

[13] = 8 g ai/ha, postemergence, 0-100 scale
[14] = 16 g ai/ha, postemergence, 0-100 scale
[15] = Postemergence, 31 g ai/ha, scale 0 to 100
[16] = Postemergence, 62 g ai/ha, scale 0 to 100, 0 no effect, 100 complete control
[17] = Preemergence, 31 g ai/ha, scale 0 to 100 (0 no effect, 100 complete control)
[18] = Preemergence, 62 g ai/ha, 0 to 100 scale, 0 no effect, 100 complete control
[19] = Preemergence, 8 g ai/ha, scale 0 to 100
[20] = Preemergence, 16 g ai/ha, scale 0 to 100
[21] = Postemergence, 16 g ai/ha, scale 0 to 100
[22] = Preemergence, 16 g ai/ha, scale 0 to 100 (0 no effect, 100 complete control)
[23] = 62 g ai/ha, scale 0 to 100, 0 no effect, 100 complete control

Compound: CCc1cc(-c2ccc(C(F)(F)F)cc2)nn1-c1c(O)cnn(CC)c1=O [Compound 67]
- Ryegrass, Italian plant response rating [1, 13]: 100
- Ryegrass, Italian plant response rating [1, 14]: 100
- Plant response rating, Ryegrass, Italian [1, 15]: 100
- Plant response rating, Ryegrass, Italian [1, 16]: 100
- Plant response rating, Ryegrass, Italian [1, 17]: 100
- Plant response rating, Ryegrass, Italian [1, 18]: 100
- Ryegrass, Italian plant response rating [1, 19]: 100
- Ryegrass, Italian plant response rating [1, 20]: 100
- Bermudagrass plant response rating ([2]; postemergence, 0-100 scale): 0
- Plant response rating, Bermudagrass [2, 21]: 0
- Plant response rating, Bermudagrass [2, 15]: 60
- Plant response rating, Bermudagrass [2, 16]: 75
- Bermudagrass plant response rating ([2]; Preemergence, scale 0 to 100 (0 no effect, 100 complete control)): 0
- Plant response rating, Bermudagrass [2, 22]: 0
- Plant response rating, Bermudagrass [2, 17]: 0
- Plant response rating, Bermudagrass [2, 18]: 0
- Cocklebur plant response rating ([3]; postemergence, 0-100 scale): 0
- Plant response rating, Cocklebur [3, 21]: 0
- Plant response rating, Cocklebur [3, 15]: 0
- Plant response rating, Cocklebur [3, 16]: 0
- Plant response rating, Cocklebur [3, 22]: 0
- Plant response rating, Cocklebur [3, 17]: 0
- Plant response rating, Cocklebur [3, 18]: 0
- Cocklebur plant response rating ([3]; Preemergence, scale 0 to 100): 0
- Plant response rating, Sunflower ([4]; 31 g ai/ha, scale 0 to 100 (0 no effect, 100 complete control)): 0
- Plant response rating, Sunflower ([4]; 62 g ai/ha, 0 to 100 scale, 0 no effect, 100 complete control): 0
- Sunflower plant response rating ([4]; 8 g ai/ha): 0
- Sunflower plant response rating ([4]; 16 g ai/ha): 0
- Ragweed plant response rating ([5]; 8 g ai/ha): 0
- Ragweed plant response rating ([5]; 16 g ai/ha): 0
- Plant response rating, Ragweed [5, 15]: 0
- Plant response rating, Ragweed [5, 16]: 0
- Plant response rating, Ragweed [5, 18]: 0
- Goosegrass plant response rating [6, 13]: 65
- Goosegrass plant response rating [6, 14]: 70
- Plant response rating, Goosegrass [6, 15]: 85
- Plant response rating, Goosegrass [6, 16]: 90
- Plant response rating, Goosegrass [6, 17]: 0
- Plant response rating, Goosegrass [6, 18]: 60
- Goosegrass plant response rating [6, 19]: 0
- Goosegrass plant response rating [6, 20]: 0
- Johnsongrass plant response rating [7, 13]: 80
- Johnsongrass plant response rating [7, 14]: 98
- Plant response rating, Johnsongrass [7, 15]: 100
- Plant response rating, Johnsongrass [7, 16]: 100
- Plant response rating, Johnsongrass [7, 17]: 100
- Plant response rating, Johnsongrass [7, 18]: 100
- Johnsongrass plant response rating [7, 19]: 70
- Johnsongrass plant response rating [7, 20]: 90
- Kochia plant response rating (kochia (Kochia scoparia); 8 g ai/ha): 0
- Kochia plant response rating (kochia (Kochia scoparia); 16 g ai/ha): 0
- Plant response rating, Kochia (kochia (Kochia scoparia); 31 g ai/ha, scale 0 to 100): 0
- Plant response rating, Kochia (kochia (Kochia scoparia); [23]): 0
- Lambsquarters plant response rating ([8]; 8 g ai/ha): 0
- Lambsquarters plant response rating ([8]; 16 g ai/ha): 0
- Plant response rating, Lambsquarters ([8]; 31 g ai/ha, scale 0 to 100): 0
- Plant response rating, Lambsquarters [8, 23]: 0
- Morningglory plant response rating [9, 13]: 0
- Morningglory plant response rating [9, 14]: 0
- Plant response rating, Morningglory [9, 15]: 0
- Plant response rating, Morningglory [9, 16]: 0
- Plant response rating, Morningglory [9, 17]: 0
- Plant response rating, Morningglory [9, 18]: 0
- Morningglory plant response rating [9, 19]: 0
- Morningglory plant response rating [9, 20]: 0
- Soybean plant response rating (soybean (Glycine max); 8 g ai/ha): 0
- Soybean plant response rating (soybean (Glycine max); 16 g ai/ha): 0
- Plant response rating, Soybean (soybean (Glycine max); 31 g ai/ha, scale 0 to 100): 0
- Plant response rating, Soybean (soybean (Glycine max); [23]): 15
- Surinam Grass plant response rating [10, 13]: 70
- Surinam Grass plant response rating [10, 14]: 85
- Plant response rating, Surinam Grass [10, 15]: 100
- Plant response rating, Surinam Grass [10, 16]: 100
- Plant response rating, Surinam Grass [10, 17]: 0
- Plant response rating, Surinam Grass [10, 18]: 55
- Surinam Grass plant response rating [10, 19]: 0
- Surinam Grass plant response rating [10, 20]: 0
- Velvetleaf plant response rating [11, 13]: 0
- Velvetleaf plant response rating [11, 14]: 0
- Plant response rating, Velvetleaf [11, 15]: 0
- Plant response rating, Velvetleaf [11, 16]: 0
- Plant response rating, Velvetleaf [11, 17]: 0
- Plant response rating, Velvetleaf [11, 18]: 0
- Velvetleaf plant response rating [11, 19]: 0
- Velvetleaf plant response rating [11, 20]: 0
- Wheat plant response rating [12, 13]: 95
- Wheat plant response rating [12, 14]: 100
- Plant response rating, Wheat [12, 15]: 100
- Plant response rating, Wheat [12, 16]: 100
- Plant response rating, Wheat [12, 17]: 100
- Plant response rating, Wheat [12, 18]: 100
- Wheat plant response rating [12, 20]: 70
